Measurements: patent publication US20040067507A1, “Liver inflammation predictive genes” (priority 2002, published 2004)
Read-outs that look alike come from different tables or passages of the source.

Tested on: Sprague Dawley rats Crl:CD
Format: in vivo, rat
From the text: In addition to the database described and utilized herein, other toxicology gene expression databases may be generated, and used to identify additional liver toxicity biomarkers, which may also be employed in the practice of the liver inflammation prediction methods of the invention. […] An example of compounds, dose levels, liver toxicity classifications and histopathology scores used in the Examples which follow are provided in Table 1. The compounds and dose levels are abbreviated in the Abbreviation Column. The Inflammation Score relates the histopathology liver inflammation, a score of “2” or higher indicates histopathology of increasing severity.
Identification of Correlating Genes: For the purpose of identifying candidate predictive genes, the database preferably includes histopathology scores for each animal which has been exposed to one or more agent(s). […] The scores are numerical scores that reflect the occurrence and severity of histopathological changes. These scores can be adjusted to have similar range to gene expression changes. […] Because the scores are numerical, they are suitable for use with a variety of statistical correlation and similarity measures.
Sprague Dawley rats Crl:CD from Charles River, Raleigh, N.C. were divided into treated rats that receive a specific concentration of the compound (see Table 1) and the control rats that only received the vehicle in which the compound is mixed (e.g., saline).
At specified timepoints (6 h, 24 h and 72 h) after administration (intraperitoneal route) of the compound, a set number of rats (usually 3 control and 3 treated) were euthanized and tissues collected. Each rat was heavily sedated with an overdose of CO2 by inhalation and a maximum amount of blood drawn. Exsanguination of the rat by this drawing of blood kills the rat. The method of collecting the tissues is very important and ensures preserving the quality of the mRNA in the tissues. The body of the rat was then opened up and prosectors rapidly removed the tissues (including liver) and immediately placed them into liquid nitrogen. […] The organs/tissues were then packaged into well-labeled plastic freezer quality bags and stored at −80 degrees until needed for isolation of the mRNA from a portion of the organ/tissue sample.
Correlation with Histopathology Scores: Histopathology scores for each animal (assigned on a compound-dose basis as indicated in Table 1) were entered with gene expression data by using the GeneSpring™ ‘Drawn Gene’ function. Correlations between inflammation histopathology scores and gene expression were conducted with the distance measures listed below: […]

[1] = Sprague Dawley Crl:CD, rat, in vivo, ip
[2] = 50 mg/kg i.p., 72 h, 1=no histopathology, 2 or higher=increasing severity
[3] = 200 mg/kg i.p., 72 h, 1=no histopathology, 2 or higher=increasing severity
[4] = 2.5 mg/kg i.p., 72 h, 1=no histopathology, 2 or higher=increasing severity
[5] = 10 mg/kg i.p., 72 h, 1=no histopathology, 2 or higher=increasing severity
[6] = 15 mgkg i.p., 72 h, 1=no histopathology, 2 or higher=increasing severity
[7] = 60 mgkg i.p., 72 h, 1=no histopathology, 2 or higher=increasing severity
[8] = 20 mg/kg i.p., 72 h, 1=no histopathology, 2 or higher=increasing severity
[9] = 40 mg/kg i.p., 72 h, 1=no histopathology, 2 or higher=increasing severity
[10] = 160 mg/kg i.p., 72 h, 1=no histopathology, 2 or higher=increasing severity
[11] = Sprague Dawley Crl:CD, rat, in vivo
[12] = 14 mg/kg i.p., 72 h, 1=no histopathology, 2 or higher=increasing severity
[13] = 30 mg/kg i.p., 72 h, 1=no histopathology, 2 or higher=increasing severity
[14] = 13 mg/kg i.p., 72 h, 1=no histopathology, 2 or higher=increasing severity
[15] = 75 mg/kg i.p., 72 h, 1=no histopathology, 2 or higher=increasing severity
[16] = 250 mg/kg i.p., 72 h, 1=no histopathology, 2 or higher=increasing severity
[17] = 0.1 mg/kg i.p., 72 h, 1=no histopathology, 2 or higher=increasing severity
[18] = 0.4 mg/kg i.p., 72 h, 1=no histopathology, 2 or higher=increasing severity
[19] = 38 mg/kg i.p., 72 h, 1=no histopathology, 2 or higher=increasing severity
[20] = 150 mg/kg i.p., 72 h, 1=no histopathology, 2 or higher=increasing severity
[21] = 25 mg/kg i.p., 72 h, 1=no histopathology, 2 or higher=increasing severity
[22] = 100 mg/kg i.p., 72 h, 1=no histopathology, 2 or higher=increasing severity
[23] = 0.2 ml/kg i.p., 72 h, 1=no histopathology, 2 or higher=increasing severity
[24] = 0.8 ml/kg i.p., 72 h, 1=no histopathology, 2 or higher=increasing severity
[25] = 12 mg/kg i.p., 72 h, 1=no histopathology, 2 or higher=increasing severity

c1ccccc1 [benzene]
Inflamm. Score [1]: 1
Necr. Score [1]: 1
Liver Inflammation (rat, in vivo, ip): no
Liver Necrosis (rat, in vivo, ip): no

NNC(=O)c1ccncc1 [isoniazid]
Liver Inflammation (50 mg/kg i.p., 72 h): no
Liver Necrosis (50 mg/kg i.p., 72 h): no
Inflamm. Score [2]: 1
Necr. Score [2]: 1
Liver Inflammation (200 mg/kg i.p., 72 h): no
Liver Necrosis (200 mg/kg i.p., 72 h): no
Inflamm. Score [3]: 1
Necr. Score [3]: 1

N.N.[Cl][Pt][Cl] [cisplatin]
Liver Inflammation (2.5 mg/kg i.p., 72 h): no
Liver Necrosis (2.5 mg/kg i.p., 72 h): no
Inflamm. Score [4]: 1
Necr. Score [4]: 1
Liver Inflammation (10 mg/kg i.p., 72 h): no
Liver Necrosis (10 mg/kg i.p., 72 h): no
Inflamm. Score [5]: 1
Necr. Score [5]: 1

S=C=Nc1cccc2ccccc12 [1-naphthylisothiocyanate]
Liver Necrosis (15 mgkg i.p., 72 h): no
Inflamm. Score [6]: 1
Necr. Score [6]: 1
Liver Necrosis (60 mgkg i.p., 72 h): yes
Inflamm. Score [7]: 2
Necr. Score [7]: 2

CN(C)N=O [dimethylnitrosamine]
Liver Inflammation (20 mg/kg i.p., 72 h): yes
Liver Necrosis (20 mg/kg i.p., 72 h): yes
Inflamm. Score [8]: 4
Necr. Score [8]: 9

CCC(=O)O[C@H]1[C@H](O[C@@H]2[C@@H](C)[C@H](O[C@H]3C[C@@](C)(OC)[C@@H](O)[C@H](C)O3)[C@@H](C)C(=O)O[C@H](CC)[C@@](C)(O)[C@H](O)[C@@H](C)C(=O)[C@H](C)C[C@@]2(C)O)O[C@H](C)C[C@@H]1N(C)C [erythromycin estolate]
Liver Inflammation (40 mg/kg i.p., 72 h): no
Liver Necrosis (40 mg/kg i.p., 72 h): no
Inflamm. Score [9]: 1
Necr. Score [9]: 1
Liver Inflammation (160 mg/kg i.p., 72 h): no
Liver Necrosis (160 mg/kg i.p., 72 h): no
Inflamm. Score [10]: 1
Necr. Score [10]: 1

C[C@@H]1C[C@H]2[C@@H]3CCC4=CC(=O)C=C[C@]4(C)[C@@]3(F)[C@@H](O)C[C@]2(C)[C@@]1(O)C(=O)CO [dexamethasone]
Inflamm. Score [11]: 1
Necr. Score [11]: 1
Liver Inflammation (rat, in vivo): no
Liver Necrosis (rat, in vivo): no

CS(=O)(=O)OCCCCOS(C)(=O)=O [busulfan]
Liver Inflammation (14 mg/kg i.p., 72 h): no
Liver Necrosis (14 mg/kg i.p., 72 h): no
Inflamm. Score [12]: 1
Necr. Score [12]: 1

O=C(O)c1cc(-c2ccc(F)cc2F)ccc1O [diflunisal]
Inflamm. Score [11]: 1
Necr. Score [11]: 1
Liver Inflammation (rat, in vivo): no
Liver Necrosis (rat, in vivo): no

c1ccc2c(c1)cc1ccc3cccc4ccc2c1c34 [benzo[a]pyrene]
Liver Inflammation (30 mg/kg i.p., 72 h): no
Liver Necrosis (30 mg/kg i.p., 72 h): no
Inflamm. Score [13]: 1
Necr. Score [13]: 1

COc1cc2c(c3oc(=O)c4c(c13)CCC4=O)[C@@H]1C=CO[C@@H]1O2 [aflatoxin]
Inflamm. Score (rat, in vivo): 4
Liver Inflammation (rat, in vivo): yes
Liver Necrosis (rat, in vivo): yes
Necr. Score (rat, in vivo): 8

CN1CCN(C2=Nc3cc(Cl)ccc3Nc3ccccc32)CC1 [clozapine]
Inflamm. Score [11]: 1
Necr. Score [11]: 1
Liver Inflammation (rat, in vivo): no
Liver Necrosis (rat, in vivo): no

Cn1c(=O)c2[nH]cnc2n(C)c1=O [theophylline]
Inflamm. Score [11]: 1
Necr. Score [11]: 1
Liver Inflammation (rat, in vivo): no
Liver Necrosis (rat, in vivo): no

O=c1[nH]cc(F)c(=O)[nH]1 [5-fluorouracil]
Liver Inflammation (13 mg/kg i.p., 72 h): no
Liver Necrosis (13 mg/kg i.p., 72 h): no
Inflamm. Score [14]: 1
Necr. Score [14]: 1
Liver Inflammation (50 mg/kg i.p., 72 h): no
Liver Necrosis (50 mg/kg i.p., 72 h): no
Inflamm. Score [2]: 1
Necr. Score [2]: 1

CCOC(=O)C(C)(C)Oc1ccc(Cl)cc1 [clofibrate]
Liver Inflammation (75 mg/kg i.p., 72 h): no
Liver Necrosis (75 mg/kg i.p., 72 h): no
Inflamm. Score [15]: 1
Necr. Score [15]: 1
Liver Inflammation (250 mg/kg i.p., 72 h): no
Liver Necrosis (250 mg/kg i.p., 72 h): no
Inflamm. Score [16]: 1
Necr. Score [16]: 1

C[C@]12CC[C@@H]3c4ccc(O)cc4CC[C@H]3[C@@H]1CC[C@@H]2O [estradiol]
Liver Inflammation (0.1 mg/kg i.p., 72 h): no
Liver Necrosis (0.1 mg/kg i.p., 72 h): no
Inflamm. Score [17]: 1
Necr. Score [17]: 1
Liver Inflammation (0.4 mg/kg i.p., 72 h): no
Liver Necrosis (0.4 mg/kg i.p., 72 h): no
Inflamm. Score [18]: 1
Necr. Score [18]: 1

CCO [ethanol]
Inflamm. Score [1]: 1
Necr. Score [1]: 1
Liver Inflammation (rat, in vivo, ip): no
Liver Necrosis (rat, in vivo, ip): no

gentamicin
Liver Inflammation (38 mg/kg i.p., 72 h): no
Liver Necrosis (38 mg/kg i.p., 72 h): no
Inflamm. Score [19]: 1
Necr. Score [19]: 1
Liver Inflammation (150 mg/kg i.p., 72 h): no
Liver Necrosis (150 mg/kg i.p., 72 h): no
Inflamm. Score [20]: 1
Necr. Score [20]: 1

ClC(Cl)Cl [chloroform]
Inflamm. Score [1]: 1
Necr. Score [1]: 1
Liver Inflammation (rat, in vivo, ip): no
Liver Necrosis (rat, in vivo, ip): no

CC(=O)N1CCN(c2ccc(OCC3COC(Cn4ccnc4)(c4ccc(Cl)cc4Cl)O3)cc2)CC1 (stereo not drawn) [ketoconazole]
Inflamm. Score [11]: 1
Necr. Score [11]: 1
Liver Inflammation (rat, in vivo): no
Liver Necrosis (rat, in vivo): no

Nc1nc(O)c2ncn(COC(CO)CO)c2n1 [gancyclovir]
Liver Inflammation (50 mg/kg i.p., 72 h): no
Liver Necrosis (50 mg/kg i.p., 72 h): no
Inflamm. Score [2]: 1
Necr. Score [2]: 1
Liver Inflammation (200 mg/kg i.p., 72 h): no
Liver Necrosis (200 mg/kg i.p., 72 h): no
Inflamm. Score [3]: 1
Necr. Score [3]: 1

C=C[C@H]1C[N@@]2CC[C@H]1C[C@@H]2[C@@H](O)c1ccnc2ccc(OC)cc12 [quinidine]
Liver Inflammation (25 mg/kg i.p., 72 h): no
Liver Necrosis (25 mg/kg i.p., 72 h): no
Inflamm. Score [21]: 1
Necr. Score [21]: 1
Liver Inflammation (100 mg/kg i.p., 72 h): no
Liver Necrosis (100 mg/kg i.p., 72 h): no
Inflamm. Score [22]: 1
Necr. Score [22]: 1

O=P1(N(CCCl)CCCl)NCCCO1 (stereo not drawn) [cyclophosphamide]
Inflamm. Score [11]: 1
Necr. Score [11]: 1
Liver Inflammation (rat, in vivo): no
Liver Necrosis (rat, in vivo): no

Brc1ccccc1 [bromobenzene]
Liver Inflammation (0.2 ml/kg i.p., 72 h): yes
Liver Necrosis (0.2 ml/kg i.p., 72 h): yes
Inflamm. Score [23]: 2
Necr. Score [23]: 2
Liver Inflammation (0.8 ml/kg i.p., 72 h): yes
Liver Necrosis (0.8 ml/kg i.p., 72 h): yes
Inflamm. Score [24]: 3
Necr. Score [24]: 4

COc1cccc2c1C(=O)c1c(O)c3c(c(O)c1C2=O)C[C@@](O)(C(=O)CO)C[C@@H]3O[C@H]1C[C@H](N)[C@H](O)[C@H](C)O1 [doxorubicin]
Liver Inflammation (12 mg/kg i.p., 72 h): no
Liver Necrosis (12 mg/kg i.p., 72 h): no
Inflamm. Score [25]: 1
Necr. Score [25]: 1

CN(N=O)C(=O)N[C@H]1C(O)O[C@H](CO)[C@@H](O)[C@@H]1O (mixture of isomers) [streptozotocin]
Liver Inflammation (20 mg/kg i.p., 72 h): no
Liver Necrosis (20 mg/kg i.p., 72 h): no
Inflamm. Score [8]: 1
Necr. Score [8]: 1
Liver Inflammation (75 mg/kg i.p., 72 h): no
Liver Necrosis (75 mg/kg i.p., 72 h): no
Inflamm. Score [15]: 1
Necr. Score [15]: 1
